Source: patent publication US6713077B1, “Control of shoot/foliar feeding pests with pesticide seed treatments” (Monsanto Technology, LLC, priority 1999, dated 2004)
Read-outs that look alike come from different tables or passages of the source.

Columns and labels:
[1] = tested on: black cutworm larvae; assay: Example 8: stand reduction of corn by black cutworm, RAZE versus WARRIOR T seed treatment; assay type: in vivo; conditions: band w/ incorporation 30 (grams/hectare)
Experimental: A lambda-cyhalothrin seed treatment formulation was prepared from WARRIOR T 11.4 CS formulation (Zeneca Ag Products, Wilmington, Del.), as described in Example 1. Also, a tefluthrin seed treatment formulation was prepared from RAZE […] formulation (available from Wilbur-Ellis Co.), by the same method. Each of these seed treatment formulations were applied for one minute at room temperature to twenty-five grams of Pioneer corn seed (Cultivar PN3394) in a rotostatic seed treater at the treatment rates noted in Table 9, below. The treated seeds were allowed to sit uncapped for four to twenty-four hours before planting.
Treated and untreated seeds (Pioneer hybrid PN3394) were planted in a soil mix consisting of Dupo silt loam, 30% Perlite, 20% coarse sand (WB-10 grade) in six groups of tubs (20 in. L×15 in. W×8 in. D). Twelve seeds were planted per tub and three tubs were planted for each treatment regimen. Soil applications of FORCE 3GR, which contains 3% tefluthrin as the active ingredient, were used for two sets of tubs containing untreated seeds. […]
(§1) The corn plants were infested at 12 DAP, which corresponds to late growth stage 11 by placing two black cutworm larvae at 3/4 instar on the soil surface near the base of the plant. […] The percent stand reduction due to plant cutting was calculated by dividing the number of cut plants into the number of plants present at infestation.

[2] = cited from earlier work
[3] = tested on: black cutworm larvae; assay: Example 5: stand reduction of corn by black cutworm, lambda cyhalothrin or tefluthrin seed treatment; assay type: in vivo; conditions: band w/ incorporation 30 (grams/hectare)
Experimental: A lambda-cyhalothrin seed treatment formulation was prepared from the WARRIOR T insecticide and corn seed was prepared and treated as described in Example 1, except that the treatment levels were 125, 228 and 358 gm active ingredient/100 kg seed. A tefluthrin seed treatment formulation was also prepared from RAZE 2.5 FS, which contains tefluthrin as the active ingredient, into water as a carrier. Treated and untreated seeds were planted and cultivated as described as described in Example 1. Again, FORCE 3GR was applied and incorporated into a 5 inch band on the soil surface at the time of planting. The tubs were overhead irrigated until the plants were infested with black cutworm larvae.
(§2) The corn plants were infested at 12 DAP, as described in Example 1. Plants were rated at 10 days after infestation (DAI) for the number of cut plants. The percent stand reduction due to plant cutting was calculated by dividing the number of cut plants into the number of plants present at infestation.

[4] = tested on: black cutworm larvae; assay: Example 7: stand reduction of corn by black cutworm, bifenthrin, lambda-cyhalothrin and tefluthrin seed treatment; assay type: in vivo; conditions: seed treatment 209 gm AI/100 kg of seed
Experimental: A lambda-cyhalothrin seed treatment formulation was prepared from WARRIOR T 11.4 CS formulation (Zeneca Ag Products, Wilmington, Del.), as described in Example 1. A seed treatment formulation was also prepared by the method as described in Example 1, except from CAPTURE® 2 EC (bifenthrin; available from FMC). Also, a seed treatment formulation was prepared from RAZE 2.5 FS formulation (available from Wilbur-Ellis Co.), containing 26.8% tefluthrin. Each of these seed treatment formulations were applied for one minute at room temperature to twenty-five grams of Pioneer corn seed (Cultivar PN3394) in a rotostatic seed treater at the treatment rates noted in Table 8, below. The treated seeds were allowed to sit uncapped for four to twenty-four hours before planting.
Treated and untreated seeds (Pioneer hybrid PN3394) were planted in a soil mix consisting of Dupo silt loam, 30% Perlite, 20% coarse sand (WB-10 grade) in six groups of tubs (20 in. L×15 in. W×8 in. D). Twelve seeds were planted per tub and three tubs were planted for each treatment regimen. […]
as §1

[5] = temperature not given; cited from earlier work
[6] = tested on: black cutworm larvae; assay: Example 2: stand reduction of corn by black cutworm, tub test; assay type: in vivo
Experimental: (§3) A lambda-cyhalothrin seed treatment formulation was prepared from the WARRIOR T insecticide and corn seed was prepared and treated as described in Example 1, except that the treatment levels were 88, 185 and 381 gm active ingredient/100 kg seed. Treated and untreated seeds were planted and cultivated as described as described in Example 1. Again, FORCE 3GR was applied either in-furrow or incorporated into a 5 inch band on the soil surface at the time of planting. The tubs were overhead irrigated until the plants were infested with black cutworm larvae.
as §2

[7] = tested on: black cutworm larvae; assay: Example 4: stand reduction of corn by black cutworm in three soil types; assay type: in vivo; conditions: seed treatment 250 gm AI/100 kg of seed
Experimental: as §3, with “from” for “from the”, “level was 250” for “levels were 88, 185 and 381”, “1.” for “1. Again,”, “and” for “either in-furrow or”, “The untreated seed—with and without tefluthrin banding—and the treated seed were planted in three different soil types. […] The” for “The”
as §2

Cc1c(F)c(F)c(COC(=O)[C@@H]2[C@H](/C=C(\Cl)C(F)(F)F)C2(C)C)c(F)c1F (racemic) [Tefluthrin, (2,3,5,6-tetrafluoro-4-methylphenyl)-methyl-(1 alpha, 3 alpha)-(Z)-(±)-3-(2-chloro-3,3,3-trifluoro-1-propenyl)-2,2-dimethylcyclopropanecarboxylate]
STAND REDUCTION (%, 10 days after infestation) [1]: total protection | Vapor pressure ([2]; 20° C.): 8 mPa | STAND REDUCTION (%, 10 days after infestation) [3]: total protection

Cc1c(COC(=O)C2C(C=C(Cl)C(F)(F)F)C2(C)C)cccc1-c1ccccc1 (stereo not drawn) [Bifenthrin, (2-methyl [1,1′-biphenyl]-3-yl)methyl 3-(2-chloro-3,3,3-trifluoro-1-propenyl)-2,2-dimethyl-cyclopropanecarboxylate]
STAND REDUCTION (%, 10 days after infestation) [4]: total protection | Water solubility [5]: 0.1 µg/mL | Vapor pressure ([2]; 25° C.): 0.024 mPa

CC1(C)[C@H](C(=O)O[C@H](C#N)c2cccc(Oc3ccccc3)c2)[C@@H]1/C=C(\Cl)C(F)(F)F [Lambda cyhalothrin, [1 alpha (s), 3 alpha(z)]-cyano(3-phenoxyphenyl)methyl-3-(2-chloro-3,3,3-trifluoro-1-propenyl)-2,2-dimethylcyclopropane carboxylate]
STAND REDUCTION (%, 10 days after infestation) ([6]; seed treatment 88 gm AI/100 kg of seed): 19.4% | STAND REDUCTION (%, 10 days after infestation) ([6]; seed treatment 381 gm AI/100 kg of seed): total protection | STAND REDUCTION (%, 10 days after infestation) ([7]; SOIL TYPE I): 80.1% | STAND REDUCTION (%, 10 days after infestation) ([7]; SOIL TYPE II): 39.8% | STAND REDUCTION (%, 10 days after infestation) ([7]; SOIL TYPE III): 72.4% | Vapor pressure ([2]; temperature not given): 2 E-4 mPa
